Experimental findings from patent US7615536B2, “1,4-benzothiazepine 1,1-dioxide derivative, process for its preparation, medicaments comprising this compound, and use thereof as a hypolipidaemic” (Sanofi-Aventis Deutschland GmbH, priority 2005, dated 2009) are described below.

The target in the test is T1, recombinantly expressed human sodium-dependent ileal bile acid transporter (IBAT, ASBT, SLC10A2) (Homo sapiens, UniProt Q12908).
T1 construct: Bases 599 to 1645 correspond to the complete coding region of the human IBAT; expressed in transfected cells
T1 sequence (Q12908 1-348): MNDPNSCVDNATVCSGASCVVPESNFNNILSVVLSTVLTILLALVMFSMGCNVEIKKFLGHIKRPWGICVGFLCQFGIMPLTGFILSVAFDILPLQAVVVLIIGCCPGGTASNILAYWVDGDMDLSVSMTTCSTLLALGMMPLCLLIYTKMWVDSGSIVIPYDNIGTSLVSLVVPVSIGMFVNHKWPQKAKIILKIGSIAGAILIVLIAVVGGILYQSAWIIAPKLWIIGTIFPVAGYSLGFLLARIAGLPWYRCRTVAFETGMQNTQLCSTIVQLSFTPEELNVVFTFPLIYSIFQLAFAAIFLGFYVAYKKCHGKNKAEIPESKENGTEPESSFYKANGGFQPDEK
Nature of the test: in vitro IBAT inhibition test ([3H]-taurocholic acid uptake into CHO-hIBAT cells). It is filed as cell-based. As for the experimental part:
Biological testing of the compound A according to the invention was carried out using the in vitro IBAT inhibition test. This test examines the effect of the compound according to the invention on the transport activity of the recombinantly expressed human sodium-dependent ileal bile acid transporter (IBAT=ileal Na^+/bile acid contransporter, ASBT=apical sodium-dependent bile acid transporter, SLC10A2=solute carrier family 10, member 2).
Preparation for and practice of the in vitro IBAT inhibition test:
1. Cloning of an Expression Vector for Human IBAT […]
CHO-hIBAT cells were sown at a concentration of 40 000 cells per well in cell culture medium in poly-D-lysine-coated 96-well plates and cultivated for 24h. […] Finally, 100 μL of scintillation fluid were added to each well, and the radioactivity taken up into the cells was determined in a MicroBeta scintillation microplate reader from Wallac.
The half-maximal inhibitory effect of the test compound (IC50 value, inhibitory concentration 50) was determined as follows:
• 1. […] This is the value measured in the absence of substance, measured in sodium-comprising transport assay buffer. • 2. […] This is the value measured in the absence of substance, measured in sodium-free transport assay buffer. • 3. […]

By IC50 is commonly meant the concentration at which inhibition is half-maximal.

With `CCCCC1(CCCC)CS(=O)(=O)c2ccc(N(C)C)cc2[C@@H](c2cccc(NC(=O)N[C@@H]3O[C@H](CO)[C@@H](O)[C@H](O)[C@H]3O)c2)N1` [Example A], the IC50 (CHO-hIBAT cells, taurocholic acid 10 μM, 60 min at room temperature) stood at 57 nM. The “activity higher compared to comparative example from EP 1 169 313” value (relative to compound 11a, from the IC50 (human IBAT) values) worked out at 560%.
